Experimental findings from publication PMC11912722, “Chikusetsusaponin IVa targeted YAP as an inhibitor to attenuate liver fibrosis and hepatic stellate cell activation” (Chinese Medicine, 2025) are described below.

The assay addresses T1, YAP in LX-2 cells (Homo sapiens, UniProt P46937).
T1 construct: gene YAP1; endogenous full-length protein in LX-2 cells, detected by western blot (YAP antibody Cell Signaling 14074 T)
The assay is described as follows: CETSA, western blot. It is filed as cell-based. The settings on record: LX-2 cells incubated 24 h with 10 μmol/L CS-IVa, lysed, supernatant heated 45-75 °C for 3 min. Background: A western blot detects proteins with antibodies after separation by electrophoresis.

T1 sequence (P46937 whole entry): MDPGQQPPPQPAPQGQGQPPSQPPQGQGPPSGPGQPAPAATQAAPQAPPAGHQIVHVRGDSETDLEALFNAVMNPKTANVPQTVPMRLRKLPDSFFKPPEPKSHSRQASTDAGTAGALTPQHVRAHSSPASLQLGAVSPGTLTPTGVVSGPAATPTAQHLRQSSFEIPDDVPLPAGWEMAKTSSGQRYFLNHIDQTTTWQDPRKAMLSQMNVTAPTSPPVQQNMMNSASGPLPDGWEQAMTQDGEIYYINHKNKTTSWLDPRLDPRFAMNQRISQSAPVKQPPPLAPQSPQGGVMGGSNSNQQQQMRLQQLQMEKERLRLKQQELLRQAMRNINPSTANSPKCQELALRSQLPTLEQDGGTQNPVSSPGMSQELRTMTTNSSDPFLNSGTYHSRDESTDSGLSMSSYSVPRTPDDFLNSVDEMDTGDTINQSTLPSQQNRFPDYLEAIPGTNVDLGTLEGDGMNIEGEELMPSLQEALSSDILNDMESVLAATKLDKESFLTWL

As to `CC1(C)CC[C@]2(C(=O)O[C@@H]3O[C@H](CO)[C@@H](O)[C@H](O)[C@H]3O)CC[C@]3(C)C(=CC[C@@H]4[C@@]5(C)CC[C@H](O[C@@H]6O[C@H](C(=O)O)[C@@H](O)[C@H](O)[C@H]6O)C(C)(C)[C@@H]5CC[C@]43C)[C@@H]2C1` [CS-IVa], the “thermal stability (CETSA)” value is reported as “treatment with CS-IVa significantly increased the thermal stability of YAP”.
